US20090068642A1, “Composition and pharmacology of novel alpha6-containing nicotinic acetylcholine receptors” (priority 2003, published 2009)
Where “and” joins values, the source holds several entries; their conditions need not be identical. Equal values may be shown once. Entries after “also recorded” stand apart in the source; their conditions may differ. Read-outs that look alike come from different tables or passages of the source.

Key:
[1] = target: T1, α6β3β4α5 nAChR (Homo sapiens, UniProt P30926+Q15825); experiment: [3H]-epibatidine binding to SH-EP1 α6β3β4α5 cell membranes (saturation and competition)
T1 construct: expressed in transfected cells; host or cells: SH-EP1 human epithelial cells
Protocol: Preparation of Cell Membranes for Receptor Binding. […] Combined homogenate (18 mL) was centrifuged at 40,000×g for 20 min (4° C.). The pellet was resuspended in 12 mL of ice-cold PBS and centrifuged again. The final pellet was resuspended in 10 mL of PBS.
[^3H]-Epibatidine Binding. For the saturation binding assay, 0.1 to 2.0 nM [^3H]-EPI (final concentrations; PerkinElmer Life Sciences, 56.2 Ci/mmol) was used to probe α6-comprising binding sites on the cell membranes. Competition binding assay was performed using 0.5 nM [^3H]-EPI (final concentration).
Each well contained 50 μL of test compound at the desired concentration, 50 μL of 4×[^3H]-EPI stock solution and 100 μL of membrane suspension and was performed in triplicate, at minimum. Samples were incubated for 2 hr at room temperature with gentle agitation. Samples defining total binding included buffer instead of test compound.
For 48-well plates, binding was terminated by immediate filtration onto GF/B filters (presoaked in 0.3% PEI) using a 48-sample, semi-auto harvester (Brandel, Gaithersburg, Md.), followed by washing 3 times with ice-cold buffer. Filters were transferred into scintillation vials filled with 3 mL of cocktail. Radioactivity was measured after 8-12 hr using a liquid scintillation analyzer (model Tri-Carb 2200CA, PerkinElmer Life Sciences Inc., Boston, Mass.). Data were expressed as disintegrations per minute (DPMs) and were converted to an absolute amount (fmoles) of bound [^3H]-EPI per mg of protein, or as a percent of control [^3H]-EPI binding (total—nonspecific).
For 96-well plates, incubation was terminated by dilution with ice-cold PBS and immediate filtration onto GF/B filter plate (presoaked in 0.3% PEI) using a 96-sample, semi-auto harvester (Brandel, Gaithersburg, Md.). After washing 3 times with ˜350 μl of ice-cold buffer, the filter plate was dried for 60 min in an oven at 49° C., bottom-sealed and each well filled with 40 μl of cocktail. […] Data were expressed as counts per minute (CPMs) and were converted to percent of control [^3H]-EPI binding (total—nonspecific).
Pseudo Hill slope (nH) was determined by fitting data to a sigmoidal dose-response equation (variable slope): % binding=Bottom+(Top−Bottom)/[1+10^(logIC50-X)·n], where X is the logarithm of inhibitor concentration and n is the slope.
A Scatchard analysis was also done for illustrative purposes, but not to determine specific binding parameters.

[2] = test system: DA release; conditions: Bencherif, et al., 1998; cited from earlier work
[3] = target: α6α4β2β3 nAChR (Homo sapiens, UniProt P17787+P43681+Q15825, P452S); experiment: 86Rb+ efflux assay, SH-EP1 α6α4β2β3 cells compared with α4β2 cells; format: cell-based
Protocol: (§1) ^86Rb^+-flux Assay. […] After cells had adhered (generally overnight, but no sooner than 4 hr later), medium was removed and replaced with 250 μl per well of complete medium supplemented with ˜300,000 cpm of ^86Rb^+ (NEN; counted at 40% efficiency using Cerenkov counting and the Packard TriCarb 1900 Liquid Scintillation Analyzer).
(§2) Briefly, after aspiration of the bulk of ^86Rb^+ loading medium from each well of the “cell plate,” each well containing cells was rinsed three times with 2 ml of fresh ^86 Rb^+ efflux buffer (130 mM NaCl, 5.4 mM KCl, 2 mM CaCl2, 5 mM glucose, 50 mM HEPES, pH 7.4) to remove extracellular ^86Rb^+. Following removal of residual rinse buffer by aspiration, the flip-plate technique was used again to simultaneously introduce fresh efflux buffer containing drugs of choice at indicated final concentrations from a 24-well “efflux/drug plate” into the wells of the cell plate. […]
(§3) Intrinsic agonist activity of test drugs was ascertained in samples containing that drug only at different concentrations and was normalized, after subtraction of non-specific efflux, to specific efflux assessed using carbamylcholine and efflux-buffer-only controls. Antagonist activity was determined for test drugs at different concentrations in the presence of 1 mM carbamylcholine and was normalized, after subtraction of non-specific efflux, to specific efflux ascertained using carbamylcholine and efflux buffer-only controls. ^86Rb^+ in both cell plates and efflux/drug plates was periodically determined to ensure material balance (i.e., that the sum of ^86Rb^+ released into the efflux/drug plate and ^86Rb^+ remaining in the cell plate were the same for each well) and to determine efficiency of ^86Rb^+ loading (the percentage of applied ^86Rb^+ actually loaded into cells).
(§4) In some cases, biphasic dose-ion flux response curves were evident and were fit to a two-phase Hill equation from which EC50 and Hill coefficients for the rising, agonist phase, and IC50 and Hill coefficients for the falling, self-inhibitory phase could be determined (Prism).

[4] = target: T2, α4β2 nAChR (Rattus norvegicus, UniProt P09483+P12390); experiment: biochemical; format: binding
T2 construct: Rat Brain; from tissue

[5] = target: T3, α7 nAChR (Rattus norvegicus, UniProt Q05941); experiment: biochemical; conditions: read-out: Ki α7 [3H]-MLA Binding
T3 construct: Rat brain; from tissue

[6] = target: T1, α6β3β4α5 nAChR; experiment: 86Rb+ efflux assay, SH-EP1 α6β3β4α5 cells; format: cell-based; conditions: SH-EP1 cells expressing α6β3β4α5-nAChR, FIG. 2
Protocol: ^86Rb^+-flux Assay. Cells were harvested at confluence from 100-mm plates by mild trypsinization (Irvine Scientific, Santa Ana, Calif.) before being resuspended in complete medium and evenly seeded at a density of one confluent 100-mm plate per 24-well plate (Falcon; ˜100-125 μg of total cell protein per well in a 500 μl volume). After cells had adhered (generally overnight, but no sooner than 4 hr later), medium was removed and replaced with 250 μl per well of complete medium supplemented with ˜300,000 cpm of ^86Rb^+ (NEN; counted at 40% efficiency using Cerenkov counting and the Packard TriCarb 1900 Liquid Scintillation Analyzer).
After at least 4 hr and typically overnight, ^86Rb^+ efflux was measured using the “flip-plate” technique (Lukas et al., 2002). […]
For each experiment, normalization and quality control measurements were made of total ^86Rb^+ efflux in samples containing a fully efficacious dose of 1 mM carbamylcholine and of non-specific ^86Rb^+ efflux measured using either samples containing 1 mM carbamylcholine plus 100 μM mecamylamine, which gave full block of agonist-induced or spontaneous, nAChR-mediated ion flux, or samples containing efflux buffer alone to assess any contributions due to spontaneous nAChR-mediated ion flux. […] Specific ^86Rb^+ efflux was determined in absolute terms and as a percentage of loaded ^86Rb^+. […]

[7] = target: T3, α7 nAChR; conditions: Table 1; from Briggs et al, 1997; read-out: Ki α7 [3H]-MLA Binding; cited from earlier work
[8] = target: T2, α4β2 nAChR; conditions: Table 1; from Briggs et al, 1997; read-out: Ki α4β2 [3H]-NIC Binding; cited from earlier work
[9] = target: α6α4β2β3 nAChR (Homo sapiens, UniProt P17787+P43681+Q15825); experiment: 86Rb+ efflux assay, SH-EP1 α6α4β2β3 cells compared with α4β2 cells; format: cell-based
Protocol: as §1, §2, §3, §4

[10] = SH-EP1 α6β3β4α5 membranes, read-out: Ki in competition with [3H]-EPI (rank order of potency)
[11] = Ki in competition with [3H]-EPI (rank order of potency)
[12] = read-out: Ki α6β3β4α5 [3H]-EPI Binding
[13] = read-out: Ki α4β2 [3H]-NIC Binding
[14] = SH-EP1 cells, Table 1, read-out: Ki α6β3β4α5 [3H]-EPI Binding

T2 sequence (P12390 25-500): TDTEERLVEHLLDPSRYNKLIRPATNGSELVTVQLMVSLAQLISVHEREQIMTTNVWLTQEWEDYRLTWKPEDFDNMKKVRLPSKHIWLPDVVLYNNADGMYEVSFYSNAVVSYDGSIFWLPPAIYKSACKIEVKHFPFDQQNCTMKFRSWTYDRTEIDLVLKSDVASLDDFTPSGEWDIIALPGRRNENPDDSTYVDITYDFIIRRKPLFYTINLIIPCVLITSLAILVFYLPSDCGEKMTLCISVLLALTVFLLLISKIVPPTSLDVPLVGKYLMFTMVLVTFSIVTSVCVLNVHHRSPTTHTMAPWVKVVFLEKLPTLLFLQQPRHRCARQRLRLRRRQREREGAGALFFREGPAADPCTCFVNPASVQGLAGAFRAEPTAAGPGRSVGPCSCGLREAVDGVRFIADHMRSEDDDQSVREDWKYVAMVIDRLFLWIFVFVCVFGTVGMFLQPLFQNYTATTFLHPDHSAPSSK
T2 sequence (P09483 31-630): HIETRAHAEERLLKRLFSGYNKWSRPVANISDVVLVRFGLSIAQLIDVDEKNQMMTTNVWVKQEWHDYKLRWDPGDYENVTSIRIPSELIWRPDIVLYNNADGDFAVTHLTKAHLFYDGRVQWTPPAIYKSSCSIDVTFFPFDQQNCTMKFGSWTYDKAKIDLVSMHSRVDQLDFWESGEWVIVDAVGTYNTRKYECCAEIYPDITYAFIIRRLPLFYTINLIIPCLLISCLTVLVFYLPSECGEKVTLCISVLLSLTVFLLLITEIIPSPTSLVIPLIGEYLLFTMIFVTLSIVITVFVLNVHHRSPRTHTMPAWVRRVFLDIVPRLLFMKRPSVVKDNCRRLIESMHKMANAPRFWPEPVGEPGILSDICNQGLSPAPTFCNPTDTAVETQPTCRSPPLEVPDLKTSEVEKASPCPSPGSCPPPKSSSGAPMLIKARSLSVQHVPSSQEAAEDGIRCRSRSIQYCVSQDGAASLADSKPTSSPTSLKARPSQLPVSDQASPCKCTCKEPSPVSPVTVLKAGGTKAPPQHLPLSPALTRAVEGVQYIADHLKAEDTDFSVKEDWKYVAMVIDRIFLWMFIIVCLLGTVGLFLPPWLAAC
T3 sequence (Q05941 23-502): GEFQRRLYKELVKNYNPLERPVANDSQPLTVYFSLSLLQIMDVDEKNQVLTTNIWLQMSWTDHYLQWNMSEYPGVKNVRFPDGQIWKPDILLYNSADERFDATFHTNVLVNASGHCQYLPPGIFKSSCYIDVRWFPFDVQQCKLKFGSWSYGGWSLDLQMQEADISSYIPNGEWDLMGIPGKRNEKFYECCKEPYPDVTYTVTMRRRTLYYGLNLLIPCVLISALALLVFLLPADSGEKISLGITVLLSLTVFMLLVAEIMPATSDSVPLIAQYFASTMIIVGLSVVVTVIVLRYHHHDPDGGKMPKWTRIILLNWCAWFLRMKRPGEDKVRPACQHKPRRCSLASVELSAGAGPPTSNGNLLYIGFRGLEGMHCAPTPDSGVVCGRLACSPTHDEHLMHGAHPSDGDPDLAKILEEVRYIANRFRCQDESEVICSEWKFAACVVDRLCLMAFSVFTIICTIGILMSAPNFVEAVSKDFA
T1 sequence (Q15825 26-494): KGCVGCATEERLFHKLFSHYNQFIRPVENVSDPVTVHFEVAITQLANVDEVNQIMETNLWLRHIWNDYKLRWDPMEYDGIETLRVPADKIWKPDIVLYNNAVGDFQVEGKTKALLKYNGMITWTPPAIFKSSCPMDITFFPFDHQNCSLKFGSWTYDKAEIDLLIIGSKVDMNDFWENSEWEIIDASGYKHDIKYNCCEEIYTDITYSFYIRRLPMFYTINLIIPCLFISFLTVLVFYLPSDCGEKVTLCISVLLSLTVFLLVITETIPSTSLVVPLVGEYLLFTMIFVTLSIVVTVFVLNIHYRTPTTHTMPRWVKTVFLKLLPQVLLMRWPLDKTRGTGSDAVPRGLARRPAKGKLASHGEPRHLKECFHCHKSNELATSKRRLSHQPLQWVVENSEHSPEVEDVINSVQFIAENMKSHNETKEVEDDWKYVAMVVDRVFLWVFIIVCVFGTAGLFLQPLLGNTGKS
T1 sequence (Q05901 25-458 partner limits assumed): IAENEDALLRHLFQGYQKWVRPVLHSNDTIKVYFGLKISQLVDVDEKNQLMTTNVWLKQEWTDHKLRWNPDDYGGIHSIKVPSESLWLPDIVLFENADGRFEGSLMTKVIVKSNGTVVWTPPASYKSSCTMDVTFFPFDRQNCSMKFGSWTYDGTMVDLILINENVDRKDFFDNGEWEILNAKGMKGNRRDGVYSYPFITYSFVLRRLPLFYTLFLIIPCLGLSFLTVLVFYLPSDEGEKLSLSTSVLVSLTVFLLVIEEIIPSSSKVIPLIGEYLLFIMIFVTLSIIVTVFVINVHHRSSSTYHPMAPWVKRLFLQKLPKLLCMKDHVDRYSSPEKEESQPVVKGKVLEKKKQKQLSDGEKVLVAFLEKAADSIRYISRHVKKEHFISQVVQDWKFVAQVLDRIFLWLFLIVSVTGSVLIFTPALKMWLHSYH
T1 sequence (P30926 22-498): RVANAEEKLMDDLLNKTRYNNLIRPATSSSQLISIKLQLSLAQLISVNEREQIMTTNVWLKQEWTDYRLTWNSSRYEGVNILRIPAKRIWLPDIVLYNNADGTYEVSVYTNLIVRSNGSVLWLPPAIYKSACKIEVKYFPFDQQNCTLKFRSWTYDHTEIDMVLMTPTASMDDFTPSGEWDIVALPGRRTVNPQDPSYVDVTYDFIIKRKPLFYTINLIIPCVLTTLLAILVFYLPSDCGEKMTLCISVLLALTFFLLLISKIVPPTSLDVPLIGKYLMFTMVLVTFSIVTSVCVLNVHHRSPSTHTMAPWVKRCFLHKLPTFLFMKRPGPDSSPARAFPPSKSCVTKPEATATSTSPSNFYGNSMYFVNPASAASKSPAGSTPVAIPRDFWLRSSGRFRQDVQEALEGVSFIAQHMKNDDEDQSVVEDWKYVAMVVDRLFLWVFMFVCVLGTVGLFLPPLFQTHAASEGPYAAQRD
T1 sequence (P30532 23-468 partner): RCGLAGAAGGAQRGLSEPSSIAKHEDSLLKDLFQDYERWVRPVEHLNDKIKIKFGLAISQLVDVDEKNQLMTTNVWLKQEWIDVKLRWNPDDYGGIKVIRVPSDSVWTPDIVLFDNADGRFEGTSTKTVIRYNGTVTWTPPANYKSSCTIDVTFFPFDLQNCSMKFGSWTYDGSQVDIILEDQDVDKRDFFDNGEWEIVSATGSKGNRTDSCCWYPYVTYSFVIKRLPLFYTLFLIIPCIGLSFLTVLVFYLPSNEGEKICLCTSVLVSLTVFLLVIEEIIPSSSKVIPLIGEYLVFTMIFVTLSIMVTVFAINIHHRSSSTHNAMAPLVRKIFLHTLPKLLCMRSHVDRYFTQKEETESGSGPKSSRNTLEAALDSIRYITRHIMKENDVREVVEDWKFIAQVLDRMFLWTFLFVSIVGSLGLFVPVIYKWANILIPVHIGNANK
Chain of α6α4β2β3 nAChR (Homo sapiens, UniProt P17787+P43681+Q15825, P452S) (P43681 27-627 P452S): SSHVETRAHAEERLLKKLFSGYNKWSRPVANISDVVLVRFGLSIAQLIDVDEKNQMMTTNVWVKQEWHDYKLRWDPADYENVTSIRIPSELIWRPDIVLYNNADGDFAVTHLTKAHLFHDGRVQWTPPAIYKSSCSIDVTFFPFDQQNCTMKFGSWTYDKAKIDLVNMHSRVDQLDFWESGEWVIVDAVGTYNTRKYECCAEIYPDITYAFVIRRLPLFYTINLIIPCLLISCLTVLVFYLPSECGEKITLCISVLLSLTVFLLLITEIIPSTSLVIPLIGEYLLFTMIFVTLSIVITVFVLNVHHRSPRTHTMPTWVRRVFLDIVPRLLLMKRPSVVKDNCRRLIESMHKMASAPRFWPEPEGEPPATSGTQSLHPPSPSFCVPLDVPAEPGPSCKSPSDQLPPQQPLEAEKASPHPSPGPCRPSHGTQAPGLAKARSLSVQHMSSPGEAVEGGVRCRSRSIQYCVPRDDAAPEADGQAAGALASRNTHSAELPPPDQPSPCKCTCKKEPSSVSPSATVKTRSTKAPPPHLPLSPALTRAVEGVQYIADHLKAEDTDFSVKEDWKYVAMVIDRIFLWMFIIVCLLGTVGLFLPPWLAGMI
Chain of α6α4β2β3 nAChR (Homo sapiens, UniProt P17787+P43681+Q15825, P452S) (Q15825 26-494): as the sequence (Q15825 26-494) above
Chain of α6α4β2β3 nAChR (Homo sapiens, UniProt P17787+P43681+Q15825, P452S) (P17787 26-502): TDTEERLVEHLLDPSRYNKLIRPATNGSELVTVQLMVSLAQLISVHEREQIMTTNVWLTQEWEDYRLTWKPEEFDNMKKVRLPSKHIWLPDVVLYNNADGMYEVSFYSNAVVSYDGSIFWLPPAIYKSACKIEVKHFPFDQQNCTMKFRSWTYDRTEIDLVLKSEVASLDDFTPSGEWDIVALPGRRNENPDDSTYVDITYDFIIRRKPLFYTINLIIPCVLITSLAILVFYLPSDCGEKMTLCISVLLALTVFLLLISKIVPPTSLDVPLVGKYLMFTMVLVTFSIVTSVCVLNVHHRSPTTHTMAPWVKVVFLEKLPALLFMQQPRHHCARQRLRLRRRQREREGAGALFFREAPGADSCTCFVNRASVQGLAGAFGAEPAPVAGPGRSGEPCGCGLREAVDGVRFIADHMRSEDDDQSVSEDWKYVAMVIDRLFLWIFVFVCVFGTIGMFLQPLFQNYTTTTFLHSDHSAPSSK
Chain of α6α4β2β3 nAChR (Homo sapiens, UniProt P17787+P43681+Q15825, P452S) (Q05901 22-458, further chain): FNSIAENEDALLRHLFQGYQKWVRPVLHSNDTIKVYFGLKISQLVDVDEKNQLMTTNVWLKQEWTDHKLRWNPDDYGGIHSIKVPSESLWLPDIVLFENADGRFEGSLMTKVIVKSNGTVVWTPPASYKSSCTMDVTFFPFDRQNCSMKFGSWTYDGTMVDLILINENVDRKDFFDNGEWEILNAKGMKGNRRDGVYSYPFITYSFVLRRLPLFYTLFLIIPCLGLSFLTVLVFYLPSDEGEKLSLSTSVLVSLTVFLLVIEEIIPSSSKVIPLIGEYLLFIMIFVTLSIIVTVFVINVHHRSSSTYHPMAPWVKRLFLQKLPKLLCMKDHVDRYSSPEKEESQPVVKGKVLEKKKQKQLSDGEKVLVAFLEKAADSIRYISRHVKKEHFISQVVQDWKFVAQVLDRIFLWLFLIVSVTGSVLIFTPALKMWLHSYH

c1cncc(C2CC3CCN2CC3)c1 (racemic) [TC-2429, (+/−)-2-(−3-pyridinyl)-1-azabicyclo[2.2.2]octane]
Ki [1, 10]: 2 nM
DA release [2]: robust DA release

CN1CCCC1c1cccnc1 (single isomer, unassigned; (-)) [(-)-NIC, nicotine]
Ki [1, 11]: 150 to 165 nM and 110 to 160 nM
Ki ([1]; Ki α6β3β4α5 [3H]-EPI Binding): 160 nM

O=c1cccc2n1C[C@@H]1CNC[C@H]2C1 [(-)-CYT, cytisine]
Ki [1, 12]: 150 nM
Agonist efficacy/potency at α6α4β2β3 nAChR relative to α4β2-nAChR [3]: higher efficacy and agonist potency; also recorded: much greater efficacy
Ki [4, 13]: 1 nM
Ki [5]: 1160 nM

CN1[C@@H](CC(=O)c2ccccc2)CCC[C@H]1C[C@H](O)c1ccccc1 [(-)-LOB, lobeline]
Ki [1, 14]: 7 nM
Ki [1, 10]: 7 to 9 nM and 6 nM

c1cncc(OC[C@@H]2CCN2)c1 [A-85380, 3-[2(S)-azetidinylmethoxy]pyridine]
Ki [1, 11]: 7 to 9 nM and 6 nM
Ki [1, 14]: 9 nM
Ki [4]: 3 nM
Ki ([5]; Rat brain, Table 1): 1200 nM

Cc1cc([C@@H]2CCCN2C)on1 [ABT-418, (S)-3-methyl-5-(1-methyl-2-pyrrolidinyl)isoxazole]
Ki [1, 11]: 900 to 3500 nM and 500 to 2000 nM
Ki [1, 14]: 850 nM
Ki ([4]; Rat brain, Table 1, read-out: Ki α4β2 [3H]-NIC Binding): 39 nM

C[N+](C)(C)CCOC(N)=O [CAR, carbachol]
86Rb+ efflux response (agonist) [6]: activate ^86Rb^+ efflux responses
Ki [1, 14]: 3500 nM
Ki [1, 10]: 900 to 3500 nM and 500 to 2000 nM

CO[C@H]1CC=C2CCN3CCC4=C(CC(=O)OC4)[C@]23C1 [DHβE, dihydro-β-erythoidine]
Ki [1, 12]: > 10000 nM
Ki [4, 13]: 26.4 nM
Ki [5]: 5000 nM

Clc1ccc(C2CC3CCC2N3)cn1 (stereo not drawn) [EPI, epibatidine]
Ki ([1]; Ki α6β3β4α5 [3H]-EPI Binding): 0.07 nM

COc1ccc(/C=C2\CCCN=C2c2cccnc2)c(OC)c1 [GTS-21, (2.4)-dimethoxybenzylidene anabaseine]
Ki [1, 11]: 900 to 3500 nM and 500 to 2000 nM
Ki [1, 14]: 1400 nM
Ki [7]: 2000 nM
Ki [8]: 20 nM

CNC(=O)OCC[N+](C)(C)C [MCC, methylcarbamylcholine]
Ki [1, 14]: 970 nM

CCN1C[C@]2(COC(=O)c3ccccc3N3C(=O)C[C@H](C)C3=O)CC[C@H](OC)[C@@]34[C@@H]5C[C@H]6[C@H](OC)[C@@H]5[C@](O)(C[C@@H]6OC)[C@@](O)([C@@H](OC)[C@H]23)[C@@H]14 [MLA, methyllycaconitine]
Ki [1, 14]: 160 nM
Ki [1, 10]: 150 to 165 nM and 110 to 160 nM

CCN1C[C@]2(COC(=O)c3ccccc3N3C(=O)C[C@H](C)C3=O)CC[C@H](OC)[C@]34C5C[C@@H]6[C@@H](OC)C[C@@](O)(C5[C@H]6OC(C)=O)[C@](O)(C13)[C@@H](OC)C24 (stereo partly drawn) [NUD, nudikauline]
Ki [1, 14]: 370 nM

C#Cc1cncc([C@@H]2CCCN2C)c1 [SIB-1508Y, altinicline]
Ki [1, 11]: 900 to 3500 nM and 500 to 2000 nM
Ki [1, 14]: 950 nM
Ki [4]: 200 nM

CNC1(C)C2CCC(C2)C1(C)C (stereo not drawn) [mecamylamine]
Ki ([1]; read-out: Ki in competition with [3H]-EPI (rank order of potency)): > 10000 nM

CC(=O)O[C@H]1C[C@@H]2CC[C@@H]3[C@H](CC[C@@]4(C)[C@H]3C[C@H]([N+]3(C)CCCCC3)[C@@H]4OC(C)=O)[C@@]2(C)C[C@@H]1[N+]1(C)CCCCC1 [pancuronium]
Sensitivity of α6α4β2β3-nAChR to functional blockade relative to α4β2-nAChR [9]: lower sensitivity

α-bungarotoxin [α-Btx]
Ki [1, 12]: > 10000 nM
Ki [4, 13]: > 10000 nM
